The values that follow come from BindingDB's records for doi:10.1021/jm0604777 (University of Bristol, 2006).

In assay [1] the target is Delta-type opioid receptor (Homo sapiens, UniProt P41143). As to the kind of experiment: Displacement of [3H]Cl-DPDPE from human recombinant DOR expressed in CHO cells. (In general: In a radioligand displacement assay an active substance lowers the binding of a labelled ligand.)
Assay [2] can be described thus: Binding affinity to DOR in guinea pig brain membrane.

Sequence of Delta-type opioid receptor (P41143 whole entry): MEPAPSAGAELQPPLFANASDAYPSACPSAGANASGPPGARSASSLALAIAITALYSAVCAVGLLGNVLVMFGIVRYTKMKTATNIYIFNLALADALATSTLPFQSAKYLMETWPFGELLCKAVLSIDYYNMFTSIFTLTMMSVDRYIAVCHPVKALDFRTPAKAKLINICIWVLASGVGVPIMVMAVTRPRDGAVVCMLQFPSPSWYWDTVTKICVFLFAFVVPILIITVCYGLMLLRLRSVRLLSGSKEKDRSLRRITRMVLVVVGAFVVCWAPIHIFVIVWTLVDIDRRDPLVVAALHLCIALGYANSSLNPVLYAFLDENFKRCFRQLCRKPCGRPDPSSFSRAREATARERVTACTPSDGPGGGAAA

On to `Cc1ccc(CCC(=O)N[C@@]23CCC(=O)[C@@H]4Oc5c(O)ccc6c5[C@@]42CCN(C)C3C6)cc1` [N-[(1R,13R,17S)-10-hydroxy-4-methyl-14-oxo-12-oxa-4-azapentacyclo[9.6.1.0^{1,13}.0^{5,17}.0^{7,18}]octadeca-7(18),8,10-trien-17-yl]-3-(4-methylphenyl)propanamide], for which the Ki (as a rule, the dissociation constant of the complex between target and ligand, obtained from inhibition or displacement) in assay [1] stood at 1.3 nM.

Consider `COc1ccc2c3c1O[C@H]1C(=O)CC[C@@]4(NC(=O)/C=C/c5ccccc5Cl)C(C2)N(CC2CC2)CC[C@]314` [N-cyclopropylmethyl-14beta-(2'-chlorocinnamoylamino)-7,8-dihydronorcodeinone], for which the Ki in assay [2] was determined as 7.2 nM.

In assay [2], `COc1ccc2c3c1O[C@H]1C(=O)CC[C@@]4(NC(=O)/C=C/c5ccccc5C)C(C2)N(CC2CC2)CC[C@]314` [N-cyclopropylmethyl-14beta-(2'-methylcinnamoylamino)-7,8-dihydronorcodeinone] came in with a Ki of 2.3 nM.

In the case of `Cc1ccccc1/C=C/C(=O)N[C@@]12CCC(=O)[C@@H]3Oc4c(O)ccc5c4[C@@]31CCN(CC1CC1)C2C5` [N-cyclopropylmethyl-14beta-(2'-methylcinnamoylamino)-7,8-dihydronormorphinone], the Ki in assay [1] is 1.3 nM.
